Data published in US20250179057A1, “MEK IMMUNE ONCOLOGY INHIBITORS AND THERAPEUTIC USES THEREOF” (Immuneering Corporation, priority 2022, published 2025).
Structures can show the parent of a compound that is named as a salt. Where two headings read alike, the source gives them in different places.

Key:
[1] = molecular target: CYP2D6 (Homo sapiens, UniProt P10635); test: in vitro; conditions: microsomes, pH 7.4
[2] = molecular target: CYP3A4 (Homo sapiens, UniProt P08684); test: in vitro; conditions: microsomes, pH 7.4
[3] = eLogD (lipophilicity; pH 7.4) by HPLC; format: physicochemical
Description: Test compounds were dissolved in DMSO at a concentration of 10 mM and further diluted with methanol:water 1:1. Samples were analyzed using gradient HPLC with three different isocratic mobile phases of 0.25% octanol in methanol (60, 65 and 70%) and 20 mM MOPS buffer (pH 7.4) with decylamine. If needed, (for low E log Doct compounds) the isocratic mobile phases were adjusted to e.g. 40, 45 and 50% methanol. Peaks were detected using a diode array at absorbance 220-320 nm.
Capacity factors data (k′_=(tr−_t0)/t0) obtained at various amounts of methanol were extrapolated to 0% methanol and k′w values are determined using a linear procedure. E log Doct (7.4) is calculated using a series of reference standards with known Log D values. Each experiment was performed in triplicate.

[4] = Mouse liver microsome stability (t1/2, Clint); conditions: for half-life at 1 μM / microsomal CLint at 1 μM: mouse, liver microsomes, pH 7.4
[5] = system: phospho-ERK in MEL-JUSO cells; test: pERK/tERK ratio in MEL-JUSO melanoma model; format: cell-based; conditions: MEL-JUSO (HRAS p.G13D, NRAS p.Q61L); 100 nM
Description: (§1) Compound (drug) treatment: Cells were plated in a 6-well plate at a density of 250,000-300,000 cells/well in 3 mL media and incubated 37° C. in a humidified, 5% CO2 incubator. […] These solutions were added to the cells (3 uL/well), mixed by swirling the plate, and incubated at 37° C. in a humidified, 5% CO2 incubator for 2 hours.
(§2) Cell lysis and protein estimation: Cells were washed with PBS, and scraped in 50 μL of lysis buffer containing protease and phosphatase inhibitors. Cell lysates were stored at −20° C. Cell lysates were thawed and spun at 12,000 rpm for one minute, 3 ul of the supernatant was added to 500 μL of Coomassie blue reagent following by 500 μL of water. […] Protein standards were used (0-20 mg/mL) to calculate protein concentrations of test samples.
(§3) All samples were heated at 95° C. for 5 minutes, cooled to room temperature and spun down. […] After the run, gel was removed and protein transfer was done using iBlot for 7 minutes, as per manufacturer's recommendations. After the transfer, nitrocellulose membrane was incubated on a shaker in 5 mL of blocking buffer at room temperature for 1 hr. The blot was then incubated overnight on a shaker in 5 ml of blocking buffer containing 0.2% Tween-20 and primary antibody, at room temperature. Anti-phospho-STAT3 antibody was used at a dilution of 1:500, the other 3 primary antibodies were used at a dilution of 1:1000.
(§4) Next day, the blot was washed 3 times for 10 min each with 10 mL of TBST followed by incubation on a shaker in 5 ml of blocking buffer containing 0.2% Tween-20 and 0.5 ul of the IRDye labeled secondary antibodies, diluted 1:10000, at room temperature for 1 hr. The blot was then washed 3 times for 10 min each with 10 mL of TBST and dried between sheets of paper towels. Imaging was done using LICOR's Odyssey imaging system, quantitation was done using their software, Image Studio version 3.1.
(§5) The nine models are described in Table 16.

[6] = system: phospho-MEK in MM415 cells; test: pMEK/tMEK ratio in MM415 melanoma model; format: cell-based
Description: as §1, §2, §3, §4, §5

[7] = system: phospho-MEK in MEL-JUSO cells; test: pMEK/tMEK ratio in MEL-JUSO melanoma model; format: cell-based; conditions: MEL-JUSO (HRAS p.G13D, NRAS p.Q61L); 100 nM
Description: as §1, §2, §3, §4, §5

[8] = system: phospho-MEK in SK-MEL-30 cells; test: pMEK/tMEK ratio in SK-MEL-30 melanoma model; format: cell-based
Description: as §1, §2, §3, §4, §5

[9] = system: phospho-MEK in A375 cells; test: pMEK/tMEK ratio in A375 melanoma model; format: cell-based; conditions: A375 (BRAF p.V600E); 100 nM
Description: as §1, §2, §3, §4, §5

[10] = system: phospho-MEK in SK-MEL-28 cells; test: pMEK/tMEK ratio in SK-MEL-28 melanoma model; format: cell-based; conditions: SK-MEL-28 (BRAF p.V600E); 100 nM
Description: as §1, §2, §3, §4, §5

[11] = Liver microsome stability (% remaining at 1 hour), beagle dog; format: in vitro ADME; conditions: 2 μM
Description: Materials and Methods: Individual stock solutions of Test Articles (TA) were prepared at 30 mM in DMSO and were further diluted to 2 mM in DMSO. […] Prior to use in the assay, the 2 mM stock solutions were diluted 10-fold with acetonitrile. The acetonitrile diluted stocks were diluted 1:50 into warm (37° C.) 0.1 M potassium phosphate, pH 7.4, containing 2.0 mM NADPH (2× final assay concentration). Frozen liver microsomes were quick thawed in a 37° C. water bath and then placed on ice. […] The plate was incubated with gentle shaking at 37° C. Duplicate 30 μL aliquots were removed immediately after compound addition (To: time zero) and at 60 minutes. […] The quenched samples were gently mixed and were stored in a −20° C. freezer for at least 30 minutes. […]
Data Collection and Calculations: Analyst (AB Sciex) and Acquity (Waters) were used for data acquisition. Results were calculated using Microsoft Excel.
Peak area ratios for IS-normalized test article counts were used to calculate the percent remaining relative to the time zero (T0) value. As appropriate, results were plotted and further analyzed to calculate half-life (T1/2) and CLint values. […]
Results were plotted [ln (% remaining) vs. incubation time] and further analyzed to calculate half-life (T1/2) values: […]

[12] = Plasma stability, mouse plasma (Balb/c; Table 5 head CD-1 Mouse); format: in vitro ADME; conditions: 2 μM
[13] = in vitro; conditions: human; for Papp A→B at 2 h, 10 μM: Caco-2, Mean Papp A-B (10^-6 cm/s); for Papp B→A at 2 h, 10 μM: Caco-2, Mean Papp B-A (10^-6 cm/s)
[14] = 1 μM, 0.5 mg/ml microsomal protein

Sequence of CYP2D6 (P10635 whole entry): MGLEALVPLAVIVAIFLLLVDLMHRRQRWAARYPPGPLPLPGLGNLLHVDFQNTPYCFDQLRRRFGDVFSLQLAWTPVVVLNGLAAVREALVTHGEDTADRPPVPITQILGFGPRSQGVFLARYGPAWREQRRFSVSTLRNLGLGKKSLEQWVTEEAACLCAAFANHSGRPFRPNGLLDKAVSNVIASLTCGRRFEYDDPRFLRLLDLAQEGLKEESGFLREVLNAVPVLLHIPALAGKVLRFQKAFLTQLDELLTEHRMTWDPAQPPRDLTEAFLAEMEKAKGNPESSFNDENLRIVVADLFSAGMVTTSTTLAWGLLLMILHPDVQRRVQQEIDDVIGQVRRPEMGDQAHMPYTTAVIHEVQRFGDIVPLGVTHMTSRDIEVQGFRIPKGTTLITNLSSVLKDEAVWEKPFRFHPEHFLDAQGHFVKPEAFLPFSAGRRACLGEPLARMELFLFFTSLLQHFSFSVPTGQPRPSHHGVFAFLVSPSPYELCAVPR
Sequence of CYP3A4 (P08684 whole entry): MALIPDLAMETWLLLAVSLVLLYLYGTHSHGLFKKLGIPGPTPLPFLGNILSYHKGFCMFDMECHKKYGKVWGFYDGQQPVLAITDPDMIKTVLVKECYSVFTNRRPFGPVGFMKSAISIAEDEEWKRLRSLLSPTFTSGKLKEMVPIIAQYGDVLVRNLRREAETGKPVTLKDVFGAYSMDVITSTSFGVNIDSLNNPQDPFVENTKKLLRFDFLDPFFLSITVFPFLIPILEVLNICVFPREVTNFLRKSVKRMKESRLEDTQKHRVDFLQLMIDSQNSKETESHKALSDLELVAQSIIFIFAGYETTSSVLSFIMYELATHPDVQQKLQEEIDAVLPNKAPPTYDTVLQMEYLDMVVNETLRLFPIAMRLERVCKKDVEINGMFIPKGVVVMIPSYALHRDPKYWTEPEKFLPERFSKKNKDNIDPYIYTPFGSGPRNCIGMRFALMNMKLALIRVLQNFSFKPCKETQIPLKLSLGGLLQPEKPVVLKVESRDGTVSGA

Compound `CNS(=O)(=O)Nc1cccc(Cc2c(CN3CCNCC3)c3cc(Cl)c(OC(=O)N(C)C)cc3oc2=O)c1Cl` [Compound 256, 6-chloro-3-(2-chloro-3-((N-methylsulfamoyl)amino)benzyl)-2-oxo-4-(piperazin-1-ylmethyl)-2H-chromen-7-yl dimethylcarbamate hydrochloride] has an inhibition at 30 min, 10 µM [1] of 7.1% and an inhibition at 30 min, 10 µM [2] of 61.8%.
With `CNS(=O)(=O)Nc1cccc(Cc2c(CN(C)C)c3ccc(OC(=O)N(C)C)cc3oc2=O)c1F` [Compound 9] the “eLogD (lipophilicity; pH = 7.4)” value [3] was 3.0, the “Mouse Clint” value [4, 14] was 32 µL/min/mg and the “Mouse Microsome (t1/2 min)” value [4, 14] was 44 min.
In the case of `CNS(=O)(=O)Nc1cccc(Cc2c(CN(C)C)c3ccc(OC(=O)N(C)C)cc3oc2=O)c1Cl` [Compound 274, 3-(2-chloro-3-((N-methylsulfamoyl)amino)benzyl)-4-((dimethylamino)methyl)-2-oxo-2H-chromen-7-yl dimethylcarbamate], the “pERK/tERK ratio normalized to DMSO” value [5] is reported as 0.631, the “pMEK/tMEK ratio normalized to DMSO” value ([6]; MM415 (NRAS p.Q61L), 100 nM) is reported as 0.58 and the “pMEK/tMEK ratio normalized to DMSO” value [7] is reported as 0.548. The “pMEK/tMEK ratio normalized to DMSO” value ([8]; SK-MEL-30 (NRAS p.Q61K), 100 nM) was 0.609, the “pMEK/tMEK ratio normalized to DMSO” value [9] was 0.585 and the “pMEK/tMEK ratio normalized to DMSO” value [10] was 0.763. For the same compound, the inhibition at 30 min, 10 µM [1] was 2.5%.
In the case of `CNS(=O)(=O)Nc1nccc(Cc2c(C)c3ccc(Oc4ncccn4)cc3oc2=O)c1F` [Reference-2, reference compound], the “Beagle Dog (% Reamining @1 hour)” value ([11]; beagle, dog, 1 h, pH 7.4) is reported as 111.6%, the chromatographic logD [3] is reported as 3.6 and the “CD-1 Mouse (% Reamining @2 hour)” value ([12]; plasma, 2 hour) is reported as 92.9%. The Papp A→B at 2 h, 10 μM [13] was 18.1 ×10⁻⁶ cm/s, the Papp B→A at 2 h, 10 μM [13] was 20.9 ×10⁻⁶ cm/s and the half-life at 1 μM [4] was 18 min. For the same compound, the microsomal CLint at 1 μM [4] was 78 µL/min/mg.
In the case of `Cn1cnc2c(F)c(Nc3ccc(Br)cc3Cl)c(C(=O)NOCCO)cc21` [Reference-1, Selumetinib], the “Beagle Dog (% Reamining @1 hour)” value ([11]; liver microsomes, 1 hour) is reported as 97.5%, the chromatographic logD [3] is reported as 3.6 and the “pERK/tERK ratio normalized to DMSO” value [5] is reported as 0.179. For the same compound, the “pMEK/tMEK ratio normalized to DMSO” value [6] was 2.386, the “pMEK/tMEK ratio normalized to DMSO” value [7] was 2.988 and the “pMEK/tMEK ratio normalized to DMSO” value [8] was 2.177. The “pMEK/tMEK ratio normalized to DMSO” value [9] was 0.962, the “pMEK/tMEK ratio normalized to DMSO” value [10] was 0.984 and the “CD-1 Mouse (% Reamining @2 hour)” value ([12]; CD-1, mouse, 2 h, pH 7.4) was 104.8%. For the same compound, the efflux ratio at 2 h, 10 μM ([13]; Caco-2, Mean (B-A/A-B) (Efflux Ratio)) was 3.19, the Papp A→B at 2 h, 10 μM [13] was 8.83 ×10⁻⁶ cm/s and the Papp B→A at 2 h, 10 μM [13] was 28.2 ×10⁻⁶ cm/s. The half-life at 1 μM [4] was 18 min and the microsomal CLint at 1 μM [4] was 78 µL/min/mg.
With `CNS(=O)(=O)Nc1cccc(Cc2c(CN3CCNCC3)c3ccc(OC(=O)N(C)C)cc3oc2=O)c1Cl` [Compound 246, 3-(2-chloro-3-((N-methylsulfamoyl)amino)benzyl)-2-oxo-4-(piperazin-1-ylmethyl)-2H-chromen-7-yl dimethylcarbamate hydrochloride] the inhibition at 30 min, 10 µM [1] was 5.1% and the inhibition at 30 min, 10 µM [2] was 16.2%.
For `CCS(=O)(=O)Nc1cccc(Cc2c(CN3CCNCC3)c3cc(Cl)c(OC(=O)N(C)C)cc3oc2=O)c1Cl` [Compound 257, 6-chloro-3-(2-chloro-3-(ethylsulfonamido)benzyl)-2-oxo-4-(piperazin-1-ylmethyl)-2H-chromen-7-yl dimethylcarbamate hydrochloride], the inhibition at 30 min, 10 µM [1] was 10.1% and the inhibition at 30 min, 10 µM [2] was 67.4%.
Work on `CCN(C)Cc1c(Cc2cccc(NS(=O)(=O)NC)c2Cl)c(=O)oc2cc(OC(=O)N(C)C)ccc12` [Compound 245, 3-(2-chloro-3-((N-methylsulfamoyl)amino)benzyl)-4-((ethyl(methyl)amino)methyl)-2-oxo-2H-chromen-7-yl dimethylcarbamate] yielded an inhibition at 30 min, 10 µM [1] of 13.7%.
